The source of these data is patent US4710500A, “1-(4'-fluorophenyl)-3,5-substituted indoles useful in the treatment of psychic disorders and pharmaceutical compositions thereof” (H. Lundbeck A/S, priority 1985, dated 1987).

The nature of one experiment: Catalepsy. It counts as in vivo, rat.
The target in the next experiment is T1, 5-HT2 receptor (Rattus norvegicus, UniProt P14842).
T1 construct: from tissue; host or cells: living rats (in vivo), CNS
The experiment can be described thus: Quipazine inhibition (head twitches). It counts as in vivo. The note with it: for Qvipaz. inh. ED50(sc): sc 2 hours before quipazine 15 umol/kg sc. On the procedure: Quipazine and a number of other compounds, which increase 5-HT2 receptor activity in the CNS, induce a characteristic rapid shake (twitch) of the head. This response is inhibited by 5-HT2 receptor antagonists (Vetulani et al. 1980, Arnt et al. 1984).
The test compound or saline is injected subcutaneously 2 hours before subcutaneous injection of quipazine hemimalecate (15umol/kg). At least 3 dose groups, each consisting of at least 4 rats, are used. The rats are individually placed in observation cages (12×25 cm) and the number of head twitches are counted 30-40 min after quipazine administration. Inhibition of head twitches is expressed in per cent of the number of head twitches in the control group. ED 50 values are calculated by log-probit analysis.
Vetulani, J., B.B. Beduarczyk, K. Reichenberg and A. Rokost: Neuropharmacology 19, 155-158, […].
(§1) Arnt, J., J. Hyttel and J.-J. Larsen: Acta pharmacol. et toxicol. 55, 363-372, 1984.

For experiment [1], the system named is methylphenidate-induced gnawing. The experiment can be described thus: Methylphenidate antagonism. It counts as in vivo, mice.
Experiment [2] concerns the target T2, dopamine (DA) D-2 receptors (Rattus norvegicus, UniProt P61169).
T2 construct: DA D-2 receptors in rat striatal membranes; from tissue; host or cells: rat striatal membranes
Description: 3H-spiroperidol binding, dopamine D-2 receptors in rat striatal membranes. On the procedure: (§2) 4. ^3 H-spiroperidol bindings
The affinity of compounds to dopamine (DA) D-2 receptors and serotomin2 (5-HT2) receptors was determined by in vitro receptor binding technique.
Arnt, J., J. Hyttel and J.-J. Larsen: Acta pharmacol. et toxicol.

In experiment [3] the target is T3, serotomin2 (5-HT2) receptors (Rattus norvegicus, UniProt P14842).
T3 construct: 5-HT2 receptors in rat cortical membranes; from tissue; host or cells: rat cortical membranes
The experiment can be described thus: 3H-spiroperidol binding, 5-HT2 receptors in rat cortical membranes. The settings on record: in vitro, read-out: 3H-Spiroperidol bindings 5-HT2 receptors IC50. On the procedure: as §2
The affinity of compounds to dopamine (DA) D-2 receptors and serotomin2 (5-HT2) receptors was determined by in vitro receptor binding technique. Binding of ^3 H-spiroperidol to DA D-2 receptors in rat striatal membranes and to 5-HT2 receptors in rat cortical membranes was determined as described in detail by Arnt et al. (1984).
as §1

Setting [4] is: i.p. test substance; mice; methylphenidate s.c. 60 mg/kg.
[5] abbreviates: read-out: Catalep. ED50(po) 1-6 h, po, rat, 1-6 h.
[6] abbreviates: Mus musculus, ip; i.p. test substance; mice; methylphenidate s.c. 60 mg/kg; read-out: MePh Antg. ED50(ip).
[7] abbreviates: read-out: Catalep. ED50(po) 24 h, po, rat, 24 h.
Setting [8] is: Rattus norvegicus, sc, 24 h, read-out: Catalep. ED50 (sc) 24 h.
Where [9] appears, read: Rattus norvegicus, sc, read-out: Catalep. ED50 (sc) 1-6 h.
Where [10] appears, read: Mus musculus, sc, read-out: MePh Antg. ED50 (sc).
Where [11] appears, read: Rattus norvegicus, po, 24 h, read-out: Catalep. ED50(po) 24 h.
The mark [12] stands for this setting: Rattus norvegicus, po, read-out: Catalep. ED50(po) 1-6 h.
The mark [13] stands for this setting: *ED50 from sc administration; mice; methylphenidate s.c. 60 mg/kg.

Where a name gives a salt, the structure may show the parent alone. Read-outs that look alike come from different tables or passages of the source.

T3 sequence (P14842 whole entry): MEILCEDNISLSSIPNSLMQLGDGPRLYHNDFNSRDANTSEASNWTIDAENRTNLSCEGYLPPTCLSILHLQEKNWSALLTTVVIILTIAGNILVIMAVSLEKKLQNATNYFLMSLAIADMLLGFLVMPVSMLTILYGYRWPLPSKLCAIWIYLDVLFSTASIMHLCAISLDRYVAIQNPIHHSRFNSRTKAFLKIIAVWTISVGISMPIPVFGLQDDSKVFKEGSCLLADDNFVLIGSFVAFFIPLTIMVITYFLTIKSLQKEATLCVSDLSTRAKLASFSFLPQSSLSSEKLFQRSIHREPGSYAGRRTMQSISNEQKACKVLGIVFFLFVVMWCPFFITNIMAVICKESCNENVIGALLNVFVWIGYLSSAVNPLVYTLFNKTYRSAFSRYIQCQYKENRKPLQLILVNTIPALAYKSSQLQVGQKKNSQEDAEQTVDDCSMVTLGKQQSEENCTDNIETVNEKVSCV
T1 sequence (P14842 whole entry): as above
T2 sequence (P61169 whole entry): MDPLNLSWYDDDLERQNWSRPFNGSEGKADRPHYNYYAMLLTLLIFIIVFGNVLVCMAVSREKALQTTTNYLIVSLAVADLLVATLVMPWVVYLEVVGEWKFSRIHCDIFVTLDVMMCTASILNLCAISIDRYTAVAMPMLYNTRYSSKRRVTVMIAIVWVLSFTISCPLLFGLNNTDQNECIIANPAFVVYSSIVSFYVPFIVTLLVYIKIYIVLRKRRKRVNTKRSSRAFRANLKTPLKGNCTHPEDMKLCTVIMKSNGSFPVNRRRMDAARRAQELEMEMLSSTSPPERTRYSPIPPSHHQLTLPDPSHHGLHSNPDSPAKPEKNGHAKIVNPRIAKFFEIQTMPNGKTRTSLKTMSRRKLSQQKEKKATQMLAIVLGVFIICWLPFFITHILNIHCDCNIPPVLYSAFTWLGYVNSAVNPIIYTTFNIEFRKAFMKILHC

Consider `OCCN1CCN(CC/C=C2/c3ccccc3Sc3ccc(C(F)(F)F)cc32)CC1` [Cis(Z)Flupentixol, reference compound], for which the “Catalep. ED50(po) 1-6 h” value in the experiment “Catalepsy” (po, rat, 1-6 h) was found to be 2.4 µmol/kg. Besides, the “Catalep. ED50(po) 24 h” value in the experiment “Catalepsy” (po, rat, 24 h) was found to be 19 µmol/kg. In addition, the “Qvipaz. inh. ED50(sc)” value at 5-HT2 receptor was determined as 0.042 µmol/kg. The “MePh Antg. ED50(ip)” value in experiment [1] (setting [4]) stood at 0.14 µmol/kg.

As to `O=C(CCCN1CCC(O)(c2ccc(Cl)cc2)CC1)c1ccc(F)cc1` [Haloperidol, reference compound], the ED50 in the experiment “Catalepsy” (setting [5]) is 1 µmol/kg; in experiment [1] (setting [6]), 0.11 µmol/kg.

`CN1CCN(c2cn(-c3ccc(F)cc3)c3ccc(C(F)(F)F)cc23)CC1` [Lu 21-123, 1-(4'-Fluorophenyl)-3-(4-methylpiperazio)-5-trifluoromethyl-1H-indole, dihydrochloride]: the ED50 in “Catalepsy” (setting [5]) was determined as 0.08 µmol/kg; in “Catalepsy” (setting [7]), 0.62 µmol/kg; in experiment [1] (setting [6]) it was 0.09 µmol/kg. Besides, the IC50 in experiment [2] (rat striatal membranes, in vitro, read-out: 3H-Spiroperidol bindings DA-2 receptors IC50) turned out to be 1.7 nM; in experiment [3], 6.7 nM.

As to `CN1CCC(c2cn(-c3ccc(F)cc3)c3ccc(C(F)(F)F)cc23)CC1` [Lu 21-131, 1-(4'-Fluorophenyl)-3-(1-methyl-4-piperidyl)-5-trifluoromethyl-1H-indole, oxalate], the results for the ED50 (in the experiment “Catalepsy” (setting [5]); in “Catalepsy” (setting [7]); in experiment [1] (setting [6])) were 0.59 µmol/kg, 2.2 µmol/kg and 0.6 µmol/kg, respectively.

Regarding `O=C1CCCN1CCN1CCN(c2cn(-c3ccc(F)cc3)c3ccc(C(F)(F)F)cc23)CC1` [Lu 22-133, 1-(4'-Fluorophenyl)-3-(4-(1-pyrrolidin-2-onylethyl)-1-piperazino)-5-trifluoromethyl-1H-indole], the values for the ED50 (in “Catalepsy” (setting [8]); in “Catalepsy” (setting [9]); in experiment [1] (setting [6])) were 1.7 µmol/kg, 0.66 µmol/kg and 0.82 µmol/kg, respectively. In experiment [3], the IC50 came to 1.9 nM. The “Qvipaz. inh. ED50(sc)” value at 5-HT2 receptor was found to be 0.15 µmol/kg.

As for `CC(C)CN1CC=C(c2cn(-c3ccc(F)cc3)c3ccc(Cl)cc23)CC1` [Lu 22-134, 5-Chloro-1-(4'-fluorophenyl)-3-(1-isobutyl-1,2,3,6-tetrahydropyridin-4-yl)-1H-indole, hydrobromide], the ED50 in “Catalepsy” (setting [8]) was over 2.7 µmol/kg; in “Catalepsy” (setting [9]) it was 2.7 µmol/kg; in experiment [1] (Mus musculus, ip, read-out: MePh Antg. ED50(ip)), 1.7 µmol/kg. Besides, in experiment [2], the IC50 came out at 5.3 nM. Further, at 5-HT2 receptor, the “Qvipaz. inh. ED50(sc)” value amounted to 2.5 µmol/kg.

On to `Fc1ccc(-n2cc(N3CCN(CCN4CCCC4=S)CC3)c3cc(C(F)(F)F)ccc32)cc1` [Lu 23-018, 1-(4'-Fluorophenyl)-3-(4-(2-(pyrrolidin-2-thion-1-yl)-ethyl)-1-piperazino)-5-trifluoromethyl-1H-indole], for which the results for the ED50 (in “Catalepsy” (setting [5]); in the experiment “Catalepsy” (setting [7]); in experiment [1] (setting [6])) were 1.2 µmol/kg, 2.9 µmol/kg and 53 µmol/kg, respectively.

Regarding `O=C1CCCN1CCN1CC=C(c2cn(-c3ccc(F)cc3)c3ccc([N+](=O)[O-])cc23)CC1` [Lu 23-024, 1-(4'-Fluorophenyl)-5-nitro-3-(1-pyrrolidin-2-onylethyl)-1,2,3,6-tetrahydropyridin-4-yl)-1H-indole, hydrochloride], in “Catalepsy” (*ED50 from sc administration, rat, 1-6 h), the “Catalep. ED50 (sc) 1-6 h” value was determined as 6.8 µmol/kg. Further, the “Catalep. ED50 (sc) 24 h” value in “Catalepsy” (*ED50 from sc administration, rat, 24 h) was over 10 µmol/kg. Also, the IC50 in experiment [3] is 5.3 nM. Also, the “MePh Antg. ED50(ip)” value in experiment [1] (setting [4]) worked out at 0.65 µmol/kg.

On to `O=C1NCCN1CCN1CC=C(c2cn(-c3ccc(F)cc3)c3ccccc23)CC1` [Lu 23-075, 1-(4'-Fluorophenyl)-3-(1-(2-imidazolidinon-1-ylethyl)-1,2,3,6-tetrahydropyridin-4-yl)-1H-indole, hydrochloride], for which the ED50 is 0.18 µmol/kg at 5-HT2 receptor (sc, 2 h, read-out: Qvipaz. inh. ED50(sc)) and 19 µmol/kg in experiment [1] (setting [10]).

With `CN1CC=C(c2cn(-c3ccc(F)cc3)c3ccccc23)CC1.Cl` [Lu 23-083, 1-(4'-Fluorophenyl)-3-(1-methyl-1,2,3,6-tetrahydropyridin-4-yl)-1H-indole, hydrochloride], the values for the ED50 (in “Catalepsy” (setting [11]); in the experiment “Catalepsy” (setting [12]); in experiment [1] (setting [10])) were over 14 µmol/kg, 9.4 µmol/kg and 1.3 µmol/kg, respectively. Also, the IC50 in experiment [2] is 1.8 nM. The “Qvipaz. inh. ED50(sc)” value on 5-HT2 receptor was determined as 0.15 µmol/kg.

Turning to `O=[N+]([O-])c1ccc2c(c1)c(C1=CCNCC1)cn2-c1ccc(F)cc1` [Lu 23-133, 1-(4'-Fluorophenyl)-5-nitro-3-(1,2,3,6-tetrahydropyridin-4-yl)-1H-indole, maleate], the ED50 in “Catalepsy” (setting [11]) is over 11 µmol/kg; in “Catalepsy” (setting [12]) it was 11 µmol/kg; in experiment [1] (setting [10]), 18 µmol/kg. The same compound returned a concentration for half-maximal inhibition (IC50) in experiment [2] of 5.9 nM.

For `O=C1NCCN1CCN1CC=C(c2cn(-c3ccc(F)cc3)c3ccc([N+](=O)[O-])cc23)CC1` [Lu 23-142, 1-(4'-Fluorophenyl)-3-(1-(2-imidazolidinon-1-ylethyl)-1,2,3,6-tetrahydropridin-4-yl)-5-nitro-1H-indole], the IC50 in experiment [3] turned out to be 6.7 nM. Further, the “MePh Antg. ED50 (sc)” value in experiment [1] (setting [13]) came out at 2.6 µmol/kg.

In the case of `OCCN1CC=C(c2cn(-c3ccc(F)cc3)c3ccc(Cl)cc23)CC1` [Lu 23-146, 5-Chloro-1-(4'-fluorophenyl)-3-(1-(2-hydroxyethyl)-1,2,3,6-tetrahydropyridin-4-yl)-1H-indole, hydrochloride], the ED50 in the experiment “Catalepsy” (setting [9]) was determined as 1 µmol/kg; in experiment [1] (setting [10]) it was 0.73 µmol/kg.

Regarding `O=C1NCCN1CCN1CC=C(c2cn(-c3ccc(F)cc3)c3ccc(C(F)(F)F)cc23)CC1` [Lu 23-157, 1-(4'-Fluorophenyl)-3-(1-(2-imidazolidinon-1-ylethyl)-1,2,3,6-tetrahydropridin-4-yl)-5-trifluoromethyl-1H-indole], the ED50 in “Catalepsy” (setting [8]) worked out at 2.6 µmol/kg; in “Catalepsy” (setting [9]) it was 0.49 µmol/kg; in experiment [1] (setting [10]), 0.37 µmol/kg. Also, on 5-HT2 receptor, the “Qvipaz. inh. ED50(sc)” value came to 0.12 µmol/kg.

For the compound `CC(=O)OCCN1CCN(c2cn(-c3ccc(F)cc3)c3ccc(C(F)(F)F)cc23)CC1` [Lu 23-161], the ED50 in the experiment “Catalepsy” (setting [8]) was found to be 0.18 µmol/kg; in the experiment “Catalepsy” (setting [9]) it was 0.09 µmol/kg; in experiment [1] (Mus musculus, sc; read-out: MePh Antg. ED50 (sc)) it was 0.05 µmol/kg.

Regarding `CC(C)N1CC=C(c2cn(-c3ccc(F)cc3)c3ccc(F)cc23)CC1` [Lu 23-167, 5-fluoro-1-(4'-fluorophenyl)-3-(1-(2-propyl)-1,2,3,6-tetrahydropyridin-4-yl)-1H-indole, fumarate], the values for the ED50 (in “Catalepsy” (setting [8]); in the experiment “Catalepsy” (setting [9]); in experiment [1] (setting [10])) were over 11 µmol/kg, 2.7 µmol/kg and 2.7 µmol/kg, respectively.

As for `Fc1ccc(-n2cc(C3=CCN(CCn4cccc4)CC3)c3cc(C(F)(F)F)ccc32)cc1` [Lu 23-172, 1-(4'-Fluorophenyl)-3-(1-pyrrolo-2-ethyl)-1,2,3,6-tetrahydropyridin-4-yl)-5-trifluoromethyl-1H-indole. maleate], the 50% inhibitory concentration (IC50) in experiment [2] (read-out: 3H-Spiroperidol bindings DA-2 receptors IC50, rat striatal membranes, in vitro) was 31 nM. On 5-HT2 receptor, the “Qvipaz. inh. ED50(sc)” value is over 0.55 µmol/kg. In addition, the ED50 in experiment [1] (setting [10]) was over 70 µmol/kg.

Take `CN1CC=C(c2cn(-c3ccsc3)c3ccc(Cl)cc23)CC1.O=C(O)/C=C\C(=O)O` [Lu 24-001, 5-Chloro-3-(1-methyl-1,2,3,6-tetrahydropyridin-4-yl)-1-(3-thienyl)-1H-indole, maleate]: the IC50 in experiment [3] was 8.8 nM. Further, the “Qvipaz. inh. ED50(sc)” value on 5-HT2 receptor was found to be 0.19 µmol/kg. Moreover, in experiment [1] (setting [4]), the “MePh Antg. ED50(ip)” value stood at 2.6 µmol/kg.

As for `Fc1ccc(-n2cc(C3=CCN(CCn4ccnc4)CC3)c3cc(C(F)(F)F)ccc32)cc1` [Lu 24-002, 1-(4'-Fluorophenyl)-3-(1-(1-imidazole-2-ethyl)-1,2,3,6-tetrahydropyridin-4-yl)-5-trifluoromethyl-1H-indole, dimaleate], at 5-HT2 receptor, the “Qvipaz. inh. ED50(sc)” value is over 0.45 µmol/kg. Also, in experiment [1] (setting [10]), the ED50 was found to be 0.45 µmol/kg.

For the compound `CN1CC=C(c2cn(-c3ccccc3F)c3ccc([N+](=O)[O-])cc23)CC1` [Lu 24-003, 1-(2'-Fluorophenyl)-5-nitro-3-(1-methyl-1,2,3,6-tetrahydropyridin-4-yl)-1H-indole, maleat], the IC50 in experiment [2] was 6 nM; in experiment [3], 14 nM. The “MePh Antg. ED50 (sc)” value in experiment [1] (setting [13]) was 0.09 µmol/kg.

Regarding `CN1CC=C(c2cn(-c3cccnc3)c3ccc([N+](=O)[O-])cc23)CC1` [Lu 24-016, 3-(1-Methyl-1,2,3,6-tetrahydropyridin-4-yl)-5-nitro-1-pyridin-3-yl-1H-indole], in experiment [1] (setting [10]), the ED50 is over 30 µmol/kg.
